In patent US8119681B2, “2-[1-phenyl-5-hydroxy or methoxy-4alpha-methyl-hexahydrocyclopenta [ƒ]indazole-5-YL]ethyl phenyl derivatives as glucocorticoid receptor ligands” (Merck Sharp & Dohme Corp., priority 2006, dated 2012) one finds Ki data, which are given here for 20 compounds.

The test deals with T1, glucocorticoid receptor (GR) (Homo sapiens, UniProt P04150).
T1 construct: endogenous in cells; host or cells: HeLa (ATCC) cell lysate supernatant
T1 sequence (P04150 1-777): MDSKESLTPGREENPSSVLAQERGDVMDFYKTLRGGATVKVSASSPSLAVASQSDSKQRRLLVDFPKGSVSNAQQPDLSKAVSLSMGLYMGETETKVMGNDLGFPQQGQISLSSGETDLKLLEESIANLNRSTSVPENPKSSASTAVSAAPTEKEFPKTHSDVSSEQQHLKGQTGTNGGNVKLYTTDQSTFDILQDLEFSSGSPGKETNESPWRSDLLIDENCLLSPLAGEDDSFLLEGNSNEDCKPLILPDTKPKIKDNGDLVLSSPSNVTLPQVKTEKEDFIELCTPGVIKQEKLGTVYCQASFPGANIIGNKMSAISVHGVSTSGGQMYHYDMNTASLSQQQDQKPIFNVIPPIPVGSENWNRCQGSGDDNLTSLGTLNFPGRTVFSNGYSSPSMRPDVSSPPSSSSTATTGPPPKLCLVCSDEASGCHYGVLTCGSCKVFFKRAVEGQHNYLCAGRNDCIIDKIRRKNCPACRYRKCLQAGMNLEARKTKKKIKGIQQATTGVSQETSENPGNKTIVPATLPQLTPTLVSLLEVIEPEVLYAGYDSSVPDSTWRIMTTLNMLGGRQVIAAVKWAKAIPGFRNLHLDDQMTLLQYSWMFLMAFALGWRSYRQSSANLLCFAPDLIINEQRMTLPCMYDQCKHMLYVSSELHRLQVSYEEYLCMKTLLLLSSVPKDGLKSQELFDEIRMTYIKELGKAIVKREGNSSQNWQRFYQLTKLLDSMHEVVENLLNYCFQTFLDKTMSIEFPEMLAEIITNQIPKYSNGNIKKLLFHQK
Nature of the test: Ligand binding assay (GR BIND), 3H-dexamethasone displacement, HeLa cell lysate. The note with it: Table 1; HeLa cell lysate, 3H-DEX. A digest of the protocol: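 HeLa cell lysate supernatant in TEGM (pH 7.2, molybdate) incubated overnight at 4 °C with 3H-dexamethasone trace (6 nM stock) and serially diluted compound, 2% EtOH final. Bound receptor captured on hydroxylapatite, filtered and counted by scintillation; IC50 calculated with dexamethasone as reference.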

pKi: −log10 of the molar value.

The compound `C[C@]12Cc3cnn(-c4ccc(F)cc4)c3C=C1CC[C@@]2(O)CCc1ccccc1S(=O)(=O)C1CC1` [Example 144, (4αS,5R)-5-{2-[2-(cyclopropylsulfonyl)phenyl]ethyl}-1-(4-fluorophenyl)-4α-methyl-1,4,4α,5,6,7-hexahydrocyclopenta[f]indazol-5-ol] showed a pKi of 8.88. On to `C[C@]12Cc3cnn(-c4ccc(F)cc4)c3C=C1CC[C@@]2(O)CCc1cccc(F)c1CO` [Example 148, (4αS,5R)-5-{2-[3-fluoro-2-(hydroxymethyl)phenyl]ethyl}-1-(4-fluorophenyl)-4α-methyl-1,4,4α,5,6,7-hexahydrocyclopenta[f]indazol-5-ol], for which the pKi was 9.17. `C[C@]12Cc3cnn(-c4ccc(F)cc4)c3C=C1CC[C@@]2(O)CCc1cccc(F)c1[C@H](N)C(F)(F)F` [Example 151, (4αS,5R)-5-(2-{2-[(1S)-1-amino-2,2,2-trifluoroethyl]-3-fluorophenyl}ethyl)-1-(4-fluorophenyl)-4α-methyl-1,4,4α,5,6,7-hexahydrocyclopenta[f]indazol-5-ol] had a pKi of 8.76. Under `C[C@]12Cc3cnn(-c4ccc(F)cc4)c3C=C1CC[C@@]2(O)CCc1cccc(F)c1[C@@H](N)C(F)(F)F` [Example 152, (4αS,5R)-5-(2-{2-[(1R)-1-amino-2,2,2-trifluoroethyl]-3-fluorophenyl}ethyl)-1-(4-fluorophenyl)-4α-methyl-1,4,4α,5,6,7-hexahydrocyclopenta[f]indazol-5-ol] stands 8.59. Turning to `C[C@]12Cc3cnn(-c4ccc(F)cc4)c3C=C1CC[C@@]2(O)CCc1ccccc1C(=O)N1CC(=O)C1` [Example 156, 1-(2-{2-[(4αS,5R)-1-(4-fluorophenyl)-5-hydroxy-4α-methyl-1,4,4α,5,6,7-hexahydrocyclopenta[f]indazol-5-yl]ethyl}benzoyl)azetidin-3-one], the pKi is 8.54. The compound `CC(=O)Cc1ccccc1CC[C@]1(O)CCC2=Cc3c(cnn3-c3ccc(F)cc3)C[C@@]21C` [Example 157, 1-(2-{2-[(4αS,5R)-1-(4-fluorophenyl)-5-hydroxy-4α-methyl-1,4,4α,5,6,7-hexahydrocyclopenta[f]indazol-5-yl]ethyl}phenyl)acetone] had a pKi of 8.82. Regarding `C[C@]12Cc3cnn(-c4ccc(F)cc4)c3C=C1CC[C@@]2(O)CCc1ccc(F)cc1C(N)=O` [Example 159, 5-fluoro-2-{2-[(4αS,5R)-1-(4-fluorophenyl)-5-hydroxy-4α-methyl-1,4,4α,5,6,7-hexahydrocyclopenta[f]indazol-5-yl]ethyl}benzamide], the pKi was 8.53. Under `C[C@]12Cc3cnn(-c4ccc(F)cc4)c3C=C1CC[C@@]2(O)/C=C/c1ccccc1S(N)(=O)=O` [Example 160, 2-{(E)-2-[(4αS,5R)-1-(4-fluorophenyl)-5-hydroxy-4α-methyl-1,4,4α,5,6,7-hexahydrocyclopenta[f]indazol-5-yl]vinyl}benzenesulfonamide] stands 9.03. In the case of `C[C@]12Cc3cnn(-c4ccc(F)cc4)c3C=C1CC[C@@]2(O)CCc1ccc(F)cc1C#N` [Example 163, 5-fluoro-2-{2-[(4αS,5R)-1-(4-fluorophenyl)-5-hydroxy-4α-methyl-1,4,4α,5,6,7-hexahydrocyclopenta[f]indazol-5-yl]ethyl}benzonitrile] it was 9.77. `C[C@]12Cc3cnn(-c4ccc(F)c(F)c4)c3C=C1CC[C@@]2(O)CCc1cccc(F)c1C(N)=O` [Example 168, 2-{2-[(4α,5R)-1-(3,4-difluorophenyl)-5-hydroxy-4α-methyl-1,4,4α,5,6,7-hexahydrocyclopenta[f]indazol-5-yl]ethyl}-6-fluorobenzamide] showed a pKi of 8.67. Compound `C[C@]12Cc3cnn(-c4ccc(F)cc4)c3C=C1CC[C@@]2(O)CCc1ccc(Cl)cc1C(N)=O` [Example 170, 5-chloro-2-{2-[(4αS,5R)-1-(4-fluorophenyl)-5-hydroxy-4α-methyl-1,4,4α,5,6,7-hexahydrocyclopenta[f]indazol-5-yl]ethyl}benzamide] had a pKi of 8.67. Compound `C[C@]12Cc3cnn(-c4ccc(F)c(F)c4)c3C=C1CC[C@@]2(O)CCc1ccccc1C(N)=O` [Example 172, 2-{2-[(4αS,5R)-1-(3,4-difluorophenyl)-5-hydroxy-4α-methyl-1,4,4α,5,6,7-hexahydrocyclopenta[f]indazol-5-yl]ethyl}benzamide] had a negative-log Ki (pKi) of 8.18.

The compound `Cc1ccc(C(N)=O)c(CC[C@]2(O)CCC3=Cc4c(cnn4-c4ccc(F)cc4)C[C@@]32C)c1` [Example 174, 2-{2-[(4αS,5R)-1-(4-fluorophenyl)-5-hydroxy-4α-methyl-1,4,4α,5,6,7-hexahydrocyclopenta[f]indazol-5-yl]ethyl}-4-methylbenzamide] had a pKi of 8.32.

The compound `C[C@]12Cc3cnn(-c4ccc(Cl)cc4)c3C=C1CC[C@@]2(O)CCc1cccc(F)c1C(N)=O` [Example 185, 2-{2-[(4αS,5R)-1-(4-chlorophenyl)-5-hydroxy-4α-methyl-1,4,4α,5,6,7-hexahydrocyclopenta[f]indazol-5-yl]ethyl}-6-fluorobenzamide] gave a pKi of 8.71.

Consider `COc1cccc(CC[C@]2(O)CCC3=Cc4c(cnn4-c4ccc(F)cc4)C[C@@]32C)c1C(N)=O` [Example 189, 2-{2-[(4αS,5R)-1-(4-fluorophenyl)-5-hydroxy-4α-methyl-1,4,4α,5,6,7-hexahydrocyclopenta[f]indazol-5-yl]ethyl}-6-methoxybenzamide], for which the pKi is 8.81.

For the compound `Cc1cccc(CC[C@]2(O)CCC3=Cc4c(cnn4-c4cccc(F)c4)C[C@@]32C)c1C(N)=O` [Example 191, 2-{2-[(4αS,5R)-1-(3-fluorophenyl)-5-hydroxy-4α-methyl-1,4,4α,5,6,7-hexahydrocyclopenta[f]indazol-5-yl]ethyl}-6-methylbenzamide], the pKi was 8.60. As for `C[C@]12Cc3cnn(-c4ccc(F)cc4)c3C=C1CC[C@@]2(O)CCc1cccc(F)c1CC(N)=O` [Example 194, 2-(2-fluoro-6-{2-[(4αS,5R)-1-(4-fluorophenyl)-5-hydroxy-4α-methyl-1,4,4α,5,6,7-hexahydrocyclopenta[f]indazol-5-yl]ethyl}phenyl)acetamide], the negative-log Ki (pKi) is 8.83.

The compound `C[C@]12Cc3cnn(-c4ccc(F)cc4)c3C=C1CC[C@@]2(O)CCc1cccc(Cl)c1CC(N)=O` [Example 197, 2-(2-chloro-6-{2-[(4αS,5R)-1-(4-fluorophenyl)-5-hydroxy-4α-methyl-1,4,4α,5,6,7-hexahydrocyclopenta[f]indazol-5-yl]ethyl}phenyl)acetamide] had a negative-log Ki (pKi) of 8.85. `CCC(O)(C(N)=O)c1ccccc1CC[C@]1(O)CCC2=Cc3c(cnn3-c3ccc(F)cc3)C[C@@]21C` (stereo partly drawn) [Example 199, 2-(2-{2-[(4αS,5R)-1-(4-fluorophenyl)-5-hydroxy-4α-methyl-1,4,4α,5,6,7-hexahydrocyclopenta[f]indazol-5-yl]ethyl}phenyl)-2-hydroxybutanamide] had a pKi of 8.34. As to `CC(C)C(O)(C(N)=O)c1ccccc1CC[C@]1(O)CCC2=Cc3c(cnn3-c3ccc(F)cc3)C[C@@]21C` (stereo partly drawn) [Example 201, 2-(2-{2-[(4αS,5R)-1-(4-fluorophenyl)-5-hydroxy-4α-methyl-1,4,4α,5,6,7-hexahydrocyclopenta[f]indazol-5-yl]ethyl}phenyl)-2-hydroxy-3-methylbutanamide], the pKi is 8.25.

Broadly, the pKi is the negative decadic logarithm of the Ki, by convention in mol/L.
